Earlier results, collected in patent US20040170686A1, “Suspension vehicle for coated drug particles” (priority 2003, published 2004).

Tested on: gram-positive organisms
Conditions: gram-positive organisms incl. Staphylococcus, Streptococcus, Enterococcus, Bacillus, Corynebacterium

In the case of CC(=O)NC[C@H]1CN(c2ccc(N3CCOCC3)c(F)c2)C(=O)O1 [Linezolid, linezolid], the antibacterial activity is listed as “strong antibacterial activity”.
